Consider 13 compounds from US9533963B2, “Alkylamidothiazoles, cosmetic or dermatological preparations containing said alkylamidothiazoles, and use thereof to combat or prevent undesired pigmentation of the skin” (BEIERSDORF AG, priority 2011, dated 2017).

By inhibition is commonly meant the drop in the measured response relative to a control, in per cent.

For the assay, the target named is T1, human tyrosinase (Homo sapiens, UniProt P14679).
T1 sequence (P14679 19-529): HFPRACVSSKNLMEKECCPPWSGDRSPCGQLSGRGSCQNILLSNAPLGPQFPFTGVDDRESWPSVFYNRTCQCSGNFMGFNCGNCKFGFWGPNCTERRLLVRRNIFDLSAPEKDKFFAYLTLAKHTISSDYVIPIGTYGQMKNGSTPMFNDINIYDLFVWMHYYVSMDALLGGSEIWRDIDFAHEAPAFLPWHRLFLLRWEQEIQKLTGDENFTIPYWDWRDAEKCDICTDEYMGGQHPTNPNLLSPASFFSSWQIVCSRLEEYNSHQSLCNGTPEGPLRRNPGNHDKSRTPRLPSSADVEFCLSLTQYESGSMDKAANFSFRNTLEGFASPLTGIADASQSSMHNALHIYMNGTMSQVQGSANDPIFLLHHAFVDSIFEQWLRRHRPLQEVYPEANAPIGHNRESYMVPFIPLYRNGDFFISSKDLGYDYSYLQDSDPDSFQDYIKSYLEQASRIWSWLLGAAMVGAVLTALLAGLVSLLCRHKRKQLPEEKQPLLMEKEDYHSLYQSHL
The assay is described as follows: Enzyme test: conversion of L-DOPA to L-dopaquinone by a human tyrosinase (MBTH, absorption at 490 nm). It is filed as biochemical. As to conditions: concentration 10 μg/ml, inhibition of the tyrosinase activity; for inhibition at 10 µg/mL: read-out: Inhibition (% of the control). The procedure: Method Description of the Effectiveness Investigations:
In this literature-known method (Winder, A. J. and Harris, H., New assays for the tyrosine hydroxylase and dopa oxidase activities of tyrosinase. Eur. J. Biochem. (1991), 198, 317-26), the reaction product L-dopaquinone is reacted with MBTH (3-methyl-2-benzothiazoline hydrazone) to give a pink-colored substance, the increase of which is measured over the time by absorption at 490 nm. […] It can be concluded from this that the substances according to the invention are extremely effective pigmentation-inhibiting substances.

With `OCc1ccc(Nc2nc(-c3ccc(O)cc3O)cs2)cc1` [4-(2-((4-(Hydroxymethyl)phenyl)amino)thiazol-4-yl)benzene-1,3-diol, reference compound], the inhibition at 10 µg/mL turned out to be 93%.

For `Oc1ccc(-c2csc(NC3CCCCC3)n2)c(O)c1` [4-(2-(Cyclohexylamino)thiazol-4-yl)benzene-1,3-diol, reference compound], the inhibition at 10 µg/mL worked out at 70%.

Consider `CCCCCCNc1nc(-c2ccc(O)cc2O)cs1` [4-(2-(Hexylamino)thiazol-4-yl)benzene-1,3-diol, reference compound], for which the inhibition at 10 µg/mL was 41%.

For `CCCNc1nc(-c2ccc(O)cc2O)cs1` [4-(2-(Propylamino)thiazol-4-yl)benzene-1,3-diol, reference compound], the inhibition at 10 µg/mL turned out to be 88%.

On to `CC(C)(C)Nc1nc(-c2ccc(O)cc2O)cs1` [4-(2-(tert-Butylamino)thiazol-4-yl)benzene-1,3-diol, reference compound], for which the inhibition at 10 µg/mL is 62%.

For `CC(C)Nc1nc(-c2ccc(O)cc2O)cs1` [4-(2-Isopropylamino)thiazol-4-yl)benzene-1,3-diol, reference compound], the “Inhibition (% of the control)” value was found to be 91%.

Consider `O=C(Cc1ccc(CO)cc1)Nc1nc(-c2ccc(O)cc2O)cs1` [N-(4-(2,4-Dihydroxyphenyl)thiazol-2-yl)-2-(4-(hydroxymethyl)phenyl)acetamide], for which the inhibition at 10 µg/mL was determined as 88%.

With `O=C(Nc1nc(-c2ccc(O)cc2O)cs1)C1CCC(CO)CC1` (stereo not shown) [N-(4-(2,4-Dihydroxyphenyl)thiazol-2-yl)-4-(hydroxymethyl)cyclohexanecarboxamide], the inhibition at 10 µg/mL came out at 94%.

For `CCCC(=O)Nc1nc(-c2ccc(O)cc2O)cs1` [N-(4-(2,4-Dihydroxyphenyl)thiazol-2-yl)butyramide], the inhibition at 10 µg/mL came out at 95%.

Take `O=C(Nc1nc(-c2ccc(O)cc2O)cs1)C1CCCCC1` [N-(4-(2,4-Dihydroxyphenyl)thiazol-2-yl)cyclohexanecarboxamide]: the inhibition at 10 µg/mL stood at 92%.

Take `CCCCCCC(=O)Nc1nc(-c2ccc(O)cc2O)cs1` [N-(4-(2,4-Dihydroxyphenyl)thiazol-2-yl)heptanamide]: the inhibition at 10 µg/mL worked out at 66%.

In the case of `CC(C)C(=O)Nc1nc(-c2ccc(O)cc2O)cs1` [N-(4-(2,4-Dihydroxyphenyl)thiazol-2-yl)isobutyramide], the inhibition at 10 µg/mL turned out to be 94%.

For the compound `CC(C)(C)C(=O)Nc1nc(-c2ccc(O)cc2O)cs1` [N-(4-(2,4-Dihydroxyphenyl)thiazol-2-yl)pivalamide], the inhibition at 10 µg/mL came out at 96%.
